Assay results from PubChem BioAssay (NCI).
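Compound exposure: 48 hours, 5 concentrations, 96-well plates. TGI is the concentration that stops growth completely.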

Assays:
Assay in all cases: NCI anticancer screen, dose series, 48 h
A498 renal = test system: A498 renal
ACHN renal = test system: ACHN renal
CCRF-CEM leukemia = test system: CCRF-CEM leukemia
EKVX NSCLC = test system: EKVX NSCLC
HCT-116 colon = test system: HCT-116 colon
HL-60(TB) leukemia = test system: HL-60(TB) leukemia
HOP-92 NSCLC = test system: HOP-92 NSCLC
HT29 colon = test system: HT29 colon
K-562 leukemia = test system: K-562 leukemia
KM12 colon = test system: KM12 colon
KM20L2 colon = test system: KM20L2 colon
MOLT-4 leukemia = test system: MOLT-4 leukemia
NCI-H460 lung = test system: NCI-H460 lung
OVCAR-8 ovarian = test system: OVCAR-8 ovarian
RXF 393 renal = test system: RXF 393 renal
SK-MEL-5 melanoma = test system: SK-MEL-5 melanoma
SW-620 colon = test system: SW-620 colon
BT-549 breast = test system: BT-549 breast
MCF7 breast = test system: MCF7 breast
NCI/ADR-RES ovarian = test system: NCI/ADR-RES ovarian

Compound | TGI (A498 renal) | TGI (ACHN renal) | TGI (CCRF-CEM leukemia) | TGI (EKVX NSCLC) | TGI (HCT-116 colon) | TGI (HL-60(TB) leukemia) | TGI (HOP-92 NSCLC) | TGI (HT29 colon) | TGI (K-562 leukemia) | TGI (KM12 colon) | TGI (KM20L2 colon) | TGI (MOLT-4 leukemia) | TGI (NCI-H460 lung) | TGI (OVCAR-8 ovarian) | TGI (RXF 393 renal) | TGI (SK-MEL-5 melanoma) | TGI (SW-620 colon) | TGI (BT-549 breast) | TGI (MCF7 breast) | TGI (NCI/ADR-RES ovarian)
CC(=O)C1=C(C)Cn2c(=O)c3ccccc3c(=O)n2C1 | > 100 µM | > 100 µM | > 100 µM | > 100 µM | > 100 µM | > 100 µM | > 100 µM | > 100 µM | > 100 µM | > 100 µM | > 100 µM | > 100 µM | > 100 µM | > 100 µM | > 100 µM | > 100 µM | > 100 µM |  |  | 
COc1cc(-c2cc(=O)c3c(O)c(OC)c(OC)c(OC)c3o2)ccc1O | 17.6 µM | > 100 µM | > 100 µM | > 100 µM | > 100 µM | 61.6 µM | 40.1 µM |  | > 100 µM | > 100 µM | > 100 µM | 93.5 µM | 69.2 µM | 48.4 µM | 48 µM | 47.8 µM | > 100 µM |  |  | 
O=C1C(Cl)=C(N2C(=O)CCCC2=O)C(=O)c2ccccc21 | 33.4 µM | 21 µM | 23.3 µM | 33.2 µM | 32 µM | 4.42 µM | 9.29 µM | 29.2 µM | 6.54 µM | > 100 µM |  | 55.6 µM | 27.8 µM | 23.9 µM | 31.9 µM | 30.2 µM | 48.3 µM | 36.2 µM | 52.1 µM | 95.3 µM
O=C1CCCC/C1=C1\C(=O)Nc2cc(F)ccc21 | > 100 µM | > 100 µM | > 100 µM | > 100 µM | > 100 µM | > 100 µM | > 100 µM | > 100 µM | > 100 µM | > 100 µM | > 100 µM | > 100 µM | > 100 µM | > 100 µM | > 100 µM | > 100 µM | > 100 µM |  |  | 
CC(O)C(N=Cc1nc(-c2ccccc2)oc1O)C(=O)O (stereo not drawn) | > 100 µM | > 100 µM | > 100 µM | > 100 µM | > 100 µM |  | > 100 µM | > 100 µM | > 100 µM | > 100 µM | > 100 µM |  | > 100 µM | > 100 µM | > 100 µM | > 100 µM | > 100 µM |  |  | 
O=C1Nc2ccccc2S/C1=C\c1cccc(C(F)(F)F)c1 | > 100 µM | > 100 µM | > 100 µM | > 100 µM | > 100 µM | > 100 µM | > 100 µM | > 100 µM | > 100 µM | > 100 µM |  | > 100 µM | > 100 µM | > 100 µM | > 100 µM | > 100 µM | > 100 µM | > 100 µM | > 100 µM | > 100 µM
CCOC(=O)[C@H](O)[C@@H](O)C(=O)NCc1ccc(C(=O)c2ccccc2)cc1 | > 100 µM | > 100 µM | > 100 µM | > 100 µM | > 100 µM | > 100 µM | > 100 µM | > 100 µM | > 100 µM | > 100 µM |  | > 100 µM | > 100 µM | > 100 µM | > 100 µM | > 100 µM | > 100 µM | > 100 µM | > 100 µM | > 100 µM
CCOC(=O)C1=C(C)OC(=O)[C@@]2(OC)C=C(Cl)[C@@]12C | > 100 µM | > 100 µM | > 100 µM | > 100 µM | > 100 µM | 91 µM | > 100 µM | > 100 µM | > 100 µM | > 100 µM |  | > 100 µM | > 100 µM | > 100 µM | > 100 µM | > 100 µM | > 100 µM | > 100 µM | > 100 µM | > 100 µM
Cc1ccc(C[P+]2(c3ccccc3)CCCCC2)cc1 | > 100 µM | > 100 µM | > 100 µM | > 100 µM | > 100 µM | 33.6 µM |  | > 100 µM | > 100 µM | > 100 µM | > 100 µM | > 100 µM | > 100 µM | > 100 µM | > 100 µM | 24.4 µM | > 100 µM |  |  | 
NCCCCN(CCCN)C(=O)c1ccccc1 | > 100 µM | > 100 µM | > 100 µM | > 100 µM | > 100 µM | > 100 µM | > 100 µM | > 100 µM | > 100 µM | > 100 µM |  | > 100 µM | > 100 µM | > 100 µM | > 100 µM | > 100 µM | > 100 µM | > 100 µM | > 100 µM | > 100 µM
Cc1c(-c2nnc(-c3ccc(Cl)cc3)o2)c(=O)n(-c2ccccc2)n1C | > 100 µM | > 100 µM | > 100 µM | > 100 µM | > 100 µM | > 100 µM | > 100 µM | > 100 µM | > 100 µM | > 100 µM | > 100 µM | > 100 µM | > 100 µM | > 100 µM | > 100 µM |  | > 100 µM |  |  | 
CCOC(=O)c1cc2c(nc1N)-c1ncccc1CC2 | > 100 µM | > 100 µM | > 100 µM | > 100 µM | > 100 µM | > 100 µM | > 100 µM | > 100 µM | > 100 µM | > 100 µM | > 100 µM | > 100 µM | > 100 µM | > 100 µM | > 100 µM | > 100 µM | > 100 µM |  |  | 
O=C(c1ccc2ccccc2c1)N(Cc1cccnc1)C(=S)N(Cc1cccnc1)C(=O)c1ccc2ccccc2c1 | > 100 µM | > 100 µM | > 100 µM | 77.1 µM | > 100 µM | > 100 µM | 69.7 µM | 81.2 µM | > 100 µM | 40 µM |  | > 100 µM | 95.7 µM | 66.5 µM | 43.9 µM | 41.3 µM | > 100 µM | 38.6 µM | > 100 µM | 88.7 µM
CN1C(=O)N/C(=C\c2ccc(S(=O)(=O)N/N=C\C(O)C(O)C(O)CO)cc2)C1=O (stereo not drawn) | > 100 µM | > 100 µM | > 100 µM | > 100 µM | > 100 µM | > 100 µM | > 100 µM | > 100 µM | > 100 µM | > 100 µM |  | > 100 µM | > 100 µM | > 100 µM | > 100 µM | > 100 µM | > 100 µM | > 100 µM | > 100 µM | > 100 µM
CC(=O)OC[C@@H]1[C@H]2CC[C@]3(C)[C@@H](OC(C)=O)CC[C@H]3[C@@H]2CC[C@H]1C1(C)SCCS1 | > 25 µM | > 25 µM | > 25 µM | > 25 µM | > 25 µM | > 25 µM | > 25 µM | > 25 µM | > 25 µM | > 25 µM |  | > 25 µM | > 25 µM | > 25 µM | > 25 µM | > 25 µM | > 25 µM | > 25 µM | > 25 µM | > 25 µM
CSCCC(N)P(C)(=O)O (stereo not drawn) | > 100 µM | > 100 µM | > 100 µM | > 100 µM | > 100 µM | > 100 µM | > 100 µM | > 100 µM | > 100 µM | > 100 µM |  | > 100 µM | > 100 µM | > 100 µM | > 100 µM | > 100 µM | > 100 µM | > 100 µM | > 100 µM | > 100 µM
Fc1ccc(OCc2nc3cc(C(F)(F)F)ccc3nc2-c2ccccc2)cc1 | > 100 µM | > 100 µM | > 93.1 µM | > 100 µM | > 100 µM | > 89.1 µM | > 100 µM | 64.9 µM | > 59 µM | > 100 µM |  | > 67.6 µM | > 100 µM | > 100 µM | > 100 µM | > 100 µM | > 100 µM | > 100 µM | > 100 µM | > 100 µM
CC1(C)OC(C[C@]2(C#N)C[C@H](CCl)OC(C)(C)O2)C[C@@H](C[C@]2(C#N)C[C@H](CCl)OC(C)(C)O2)O1 (stereo partly drawn) | > 100 µM | > 100 µM | > 100 µM | > 100 µM | > 100 µM | > 100 µM | > 100 µM | > 100 µM | > 100 µM | > 100 µM | > 100 µM | > 100 µM | > 100 µM | > 100 µM |  | > 100 µM | > 100 µM |  |  | 
Nc1ccc(N=Nc2ccc(-c3ccc(O)cc3)cc2)c2ccc(S(=O)(=O)O)cc12 | > 100 µM | > 100 µM | > 100 µM | > 100 µM | > 100 µM | > 100 µM | > 100 µM | > 100 µM | > 100 µM | > 100 µM |  | > 100 µM | > 100 µM | > 100 µM | > 100 µM | > 100 µM | > 100 µM | > 100 µM | > 100 µM | > 100 µM
CCCCCC(=O)Nc1nc[nH]c1C(N)=O | > 100 µM | > 100 µM | > 100 µM | > 100 µM | > 100 µM | > 100 µM | > 100 µM | > 100 µM | > 100 µM | > 100 µM |  | > 100 µM | > 100 µM | > 100 µM | > 100 µM | > 100 µM | > 100 µM | > 100 µM | > 100 µM | > 100 µM
